Measured values reported in PMC6982223, “Design, Synthesis and Molecular Modeling Study of Conjugates of ADP and Morpholino Nucleosides as A Novel Class of Inhibitors of PARP-1, PARP-2 and PARP-3” (International Journal of Molecular Sciences, 2019).

Tests used:
Assay type in all cases: biochemical
[1] = target: T1, Murine recombinant poly(ADP-ribose)-polymerase 2 (Mus musculus, UniProt O88554); test: autopoly(ADP-ribosyl)ation of PARP-2, [32P]NAD+ incorporation; conditions: autopoly(ADP-ribosyl)ation, 0.6 mM NAD+
T1 construct: made in house
Source text: (§1) The oligonucleotides were purchased from Biosset (Novosibirsk, Russia). The reagents, solvents and the basic components of buffers were purchased from Sigma (St. Louis, MO, USA), Acros organics (Waltham, MA, USA) or Promega (Madison, WI, USA). γ–[^32P]-ATP and α–[^32P]-ATP (with specific activities of 5000 and 3000 Ci/mmol, respectively) were from the Laboratory of Biotechnology (Institute of Chemical Biology and Fundamental Medicine, Novosibirsk, Russia). T4 polynucleotide kinase was from Biosan (Novosibirsk, Russia). SUMO fusion expression vector pETHSUL (GenBank: EF205333.1) and pSUPER vector coding for the catalytic domain of the S. cerevisiae SUMO hydrolase dtUD1 were kindly provided by Dr. P. Loll (Drexel University, Philadelphia, USA). His6 and Strep-II double-tagged dtUD1 hydrolase was expressed and purified as described in ref. [81]. Human recombinant poly(ADP-ribose)-polymerase 1 (EC 2.4.2.30) was prepared as described previously. Murine recombinant poly(ADP-ribose)-polymerase 2 (EC 2.4.2.30) was purified as described previously. Plasmid encoding human PARP-3 was kindly provided by Dr. A. Ishchenko (Gustave Roussy, Université Paris-Saclay, France). Poly(ADP-ribose)-polymerase 3 (EC 2.4.2.30) was purified according to [6].
(§2) The reaction of autopoly(ADP-ribosyl)ation was carried out as follows: for PARP-1 50 mM tris-HCl, pH 8.0, 20 mM MgCl2, 150 mM NaCl, and 7 mM β-mercaptoethanol, activated DNA 2 OE/mL, 0.3 mM [^32P] NAD+ at 37 °C. The reaction was initiated by adding PARP-1 to 200 nM and the reaction mixtures were incubated for 1.5 min. For PARP-2: 50 mM tris-HCl, pH 8.0, 3 mM spermin, 150 mM NaCl, and 7 mM β-mercaptoethanol, activated DNA 2 OE/mL, 0.6 mM [^32P] NAD+ at 37 °C. The reaction was initiated by adding PARP-2 to 800 nM and the reaction mixtures were incubated for 5 min. The reaction was stopped by placing 10 μL aliquots onto Whatman 1 paper filters soaked with 5 % TCA. The filters were washed with 5% TCA for four times and dried in air after the removal of TCA with 90% ethanol. The incorporation of radioactivity into the product was calculated with a Tri-Carb 2800 scintillation counter (Perkin Elmer, Waltham, MA, USA) according to the Cherenkov method or using Typhoon FLA 9500 scanner (GE Healthcare, Chicago, IL, USA). To determine the IC50 value of inhibitors (concentration of the compound required reducing the enzyme activity by 50%), we studied the activity of the enzyme at different concentrations of inhibitors. Measurements were done in at least two independent experiments. IC50 values were calculated using the Origin Pro 8.0 software by nonlinear regression analysis.

[2] = target: T2, Human recombinant poly(ADP-ribose)-polymerase 1 (Homo sapiens, UniProt P09874); test: autopoly(ADP-ribosyl)ation of PARP-1, [32P]NAD+ incorporation; conditions: autopoly(ADP-ribosyl)ation, 0.3 mM NAD+
T2 construct: made in house
Source text: as §1, §2

PARP-3 = target: T3, PARP-3 (Homo sapiens, UniProt Q9Y6F1); test: auto(ADP-ribosyl)ation of PARP-3
T3 construct: made in house
T3 sequence (Q9Y6F1 1-533): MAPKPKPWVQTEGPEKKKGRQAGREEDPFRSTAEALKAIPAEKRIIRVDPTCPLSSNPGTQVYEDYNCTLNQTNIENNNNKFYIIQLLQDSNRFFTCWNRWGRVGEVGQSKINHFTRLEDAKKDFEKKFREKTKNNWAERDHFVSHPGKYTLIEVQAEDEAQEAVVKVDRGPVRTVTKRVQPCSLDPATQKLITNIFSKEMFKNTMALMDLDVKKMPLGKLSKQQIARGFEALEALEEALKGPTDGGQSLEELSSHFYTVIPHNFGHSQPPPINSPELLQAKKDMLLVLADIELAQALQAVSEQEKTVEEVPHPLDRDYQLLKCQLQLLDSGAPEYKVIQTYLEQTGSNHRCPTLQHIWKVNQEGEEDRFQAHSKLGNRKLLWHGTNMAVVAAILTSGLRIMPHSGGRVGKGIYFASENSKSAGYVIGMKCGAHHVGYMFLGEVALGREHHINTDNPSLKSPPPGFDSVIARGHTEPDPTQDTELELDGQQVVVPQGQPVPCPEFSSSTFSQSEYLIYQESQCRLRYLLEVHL
Source text: as §1
The reactions were performed in the presence of 2 mM MgCl2 as a cofactor in HDB buffer. The reaction mixtures (final volume 10 μL) contained 0.1 μM DNA substrate, 0.5 μM PARP-3, 5 μM [^32P]-NAD+ and 0, 35 or 95 μM NAD+ in the absence or presence of various concentrations of the inhibitor, which are indicated on the figures. The reaction mixtures were incubated for 20 min at 37 °С then terminated by adding the 5x gel loading Laemmli sample buffer and heating at 85 °C for 10 min. The mixtures were resolved on a 10% SDS-PAG as described in [84] The gels were dried and subjected to autoradiography and/or phosphorimaging for quantitation using the Typhoon imaging system from GE Healthcare Life Sciences. Quantitative processing was carried out using OriginPro7.5, Microcal Software, USA. […]

PARP-1 = target: T4, PARP-1 (Homo sapiens, UniProt P09874); test: kinetics of PARP-1 inhibition (Km, Vmax, type of inhibition) by fluorescence anisotropy; conditions: for type of inhibition: PARP-1 catalyzed reaction, versus NAD+
T4 construct: made in house
Experimental: The type of inhibition was determined based on at what stage of the reaction the inhibitor binds to the enzyme (before or after the substrate binding) and where it binds (at the substrate binding site or elsewhere). There are four types of inhibition: competitive, whereby an inhibitor binding occurs at the substrate-binding site; noncompetitive, where an inhibitor binds at the allosteric center; mixed with inhibitor binding at both the active and allosteric center; or uncompetitive under an inhibitor binding to the enzyme-substrate complex. Determination of the type of inhibition is necessary to confirm the computer simulation data and to plan further modifications of the inhibitor structure. The type of inhibition can be determined from the plots of the reaction parameters, such as maximum rates, Vmax and the apparent Michaelis constant, Km, values, versus inhibitor concentration. […] Noncompetitive inhibition leads to a decrease of Vmax and retention of the Km values. Mixed inhibition is a superposition of the first two, and is characterized by a decrease in the reaction rate and an increase in Km values. In the case of uncompetitive inhibition, both […].
To determine the type of inhibition of the studied compounds, the activity of PARP-1 was measured at presence of three different inhibitor concentrations at nine NAD+ substrate concentrations by the fluorescence anisotropy technique. Based on the obtained data, dependence graphs of the initial reaction rate on the substrate concentration were constructed, and reaction parameters such as maximum reaction rate (Vmax) and apparent Michaelis constant (Km) values were found (Tables S3 and S4, Supporting). To determine the type of inhibition, we plotted the dependence graph of Vmax and Km values on the inhibitor concentration using OriginPro 8.6.0 software. (Figure 3). […] Therefore, the results of modeling of the binding type of these compounds in the enzyme’s active center are legitimate.
The determination of the kinetic parameters of inhibition Km and Vmax was carried out as described. In all experiments, the points on the experimental curves represent the average of a minimum three independent experiments.

T4 sequence (P09874 whole entry): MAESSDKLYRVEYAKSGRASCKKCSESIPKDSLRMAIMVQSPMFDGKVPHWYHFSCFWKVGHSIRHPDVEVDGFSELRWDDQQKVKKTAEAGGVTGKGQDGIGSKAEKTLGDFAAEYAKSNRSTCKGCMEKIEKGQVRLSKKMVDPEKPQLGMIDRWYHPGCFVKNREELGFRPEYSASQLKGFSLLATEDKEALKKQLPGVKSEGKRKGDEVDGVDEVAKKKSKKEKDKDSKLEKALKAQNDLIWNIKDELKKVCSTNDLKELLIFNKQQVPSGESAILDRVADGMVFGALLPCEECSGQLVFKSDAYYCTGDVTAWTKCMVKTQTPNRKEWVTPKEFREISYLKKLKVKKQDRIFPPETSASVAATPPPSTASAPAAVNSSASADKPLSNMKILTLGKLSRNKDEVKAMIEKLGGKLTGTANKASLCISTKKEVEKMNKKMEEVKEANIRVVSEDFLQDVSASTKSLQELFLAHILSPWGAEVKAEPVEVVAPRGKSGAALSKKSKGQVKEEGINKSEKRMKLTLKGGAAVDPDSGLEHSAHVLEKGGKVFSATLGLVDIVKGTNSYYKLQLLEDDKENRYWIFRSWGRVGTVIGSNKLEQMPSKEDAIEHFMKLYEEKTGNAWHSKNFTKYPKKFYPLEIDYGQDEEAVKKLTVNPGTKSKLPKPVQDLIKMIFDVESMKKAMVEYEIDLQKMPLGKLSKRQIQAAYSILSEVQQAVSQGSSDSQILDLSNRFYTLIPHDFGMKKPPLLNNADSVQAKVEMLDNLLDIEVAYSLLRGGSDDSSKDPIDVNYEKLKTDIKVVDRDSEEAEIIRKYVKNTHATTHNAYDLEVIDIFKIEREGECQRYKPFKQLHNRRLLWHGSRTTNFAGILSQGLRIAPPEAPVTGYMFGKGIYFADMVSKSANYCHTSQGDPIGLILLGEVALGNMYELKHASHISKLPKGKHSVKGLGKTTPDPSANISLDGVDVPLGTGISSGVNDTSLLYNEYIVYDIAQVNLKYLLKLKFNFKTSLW
T2 sequence (P09874 whole entry): as above
T1 sequence (O88554 whole entry): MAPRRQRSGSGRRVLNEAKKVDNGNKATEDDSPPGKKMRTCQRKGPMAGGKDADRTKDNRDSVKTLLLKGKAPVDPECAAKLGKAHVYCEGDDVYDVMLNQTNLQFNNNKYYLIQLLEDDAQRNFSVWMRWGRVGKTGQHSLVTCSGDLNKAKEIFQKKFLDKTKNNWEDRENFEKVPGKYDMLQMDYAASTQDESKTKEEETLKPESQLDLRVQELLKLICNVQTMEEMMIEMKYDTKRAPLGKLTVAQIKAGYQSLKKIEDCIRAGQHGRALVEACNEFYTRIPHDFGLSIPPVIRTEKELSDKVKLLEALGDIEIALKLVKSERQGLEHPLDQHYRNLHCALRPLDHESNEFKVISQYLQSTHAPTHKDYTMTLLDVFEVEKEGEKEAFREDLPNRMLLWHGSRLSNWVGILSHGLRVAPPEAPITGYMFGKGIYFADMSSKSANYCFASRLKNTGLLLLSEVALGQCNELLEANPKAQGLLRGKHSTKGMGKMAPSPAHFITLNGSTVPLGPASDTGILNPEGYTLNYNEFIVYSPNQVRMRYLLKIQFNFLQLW

Structure (SMILES)	IC50 [1] [µM]	IC50 [2] [µM]	activity against PARP-3 (PARP-3)	type of inhibition (PARP-1)	Vmax (PARP-1; inhibitor concentration 300 μМ) [RFU/sec]	Vmax (PARP-1; inhibitor concentration 600 μМ) [RFU/sec]	Vmax (PARP-1; inhibitor concentration 900 μМ) [RFU/sec]	inhibitory activity in the auto(ADP-ribosyl)ation reaction of PARP-3 (PARP-3; 1 mM concentration)	Vmax (PARP-1; inhibitor concentration 50 μМ) [RFU/sec]	Vmax (PARP-1; inhibitor concentration 100 μМ) [RFU/sec]	Vmax (PARP-1; inhibitor concentration 500 μМ) [RFU/sec]
Nc1ncnc2c1ncn2C1CNCC(CNP(=O)(O)OP(=O)(O)OCC2OC(n3cnc4c(N)ncnc43)C(O)C2O)O1 (stereo not drawn) [Compound 10A]	63 ± 10	353 ± 4	lack of activity	mixed inhibitor	0.090	0.068	0.062	–	–	–	–
Nc1ncnc2c1ncn2C1OC(COP(=O)(O)OP(=O)(O)NCC2CNCC(n3cc(I)c(=O)[nH]c3=O)O2)C(O)C1O (stereo not drawn) [Compound 10IU]	110	126	low activity	competitive inhibitors	–	–	–	significant inhibitory activity	0.19	0.18	0.17
